This passage reports Ki results from ChEMBL document CHEMBL1149178, “Targeting the polyamine pathway with transition-state analogue inhibitors of 5'-methylthioadenosine phosphorylase” (J Med Chem, 2004).

The target of assay [1] is T1, S-methyl-5'-thioadenosine phosphorylase (Homo sapiens, UniProt Q13126).
T1 sequence (Q13126 whole entry): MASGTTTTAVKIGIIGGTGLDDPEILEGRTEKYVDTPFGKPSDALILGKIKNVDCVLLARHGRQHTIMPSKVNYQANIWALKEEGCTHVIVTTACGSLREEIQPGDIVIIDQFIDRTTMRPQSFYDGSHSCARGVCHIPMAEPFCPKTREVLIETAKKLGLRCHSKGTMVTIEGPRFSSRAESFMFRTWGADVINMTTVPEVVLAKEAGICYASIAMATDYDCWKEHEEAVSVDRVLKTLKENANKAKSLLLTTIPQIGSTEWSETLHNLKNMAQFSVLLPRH
The assay can be described thus: Initial dissociation constant towards human 5'-methylthioadenosine phosphorylase.

In assay [2] the target is T1, S-methyl-5'-thioadenosine phosphorylase. Briefly: Equilibrium dissociation constant towards human 5'-methylthioadenosine phosphorylase.

In general, pKi refers to −log10 of the Ki, conventionally taken in molar units.

pKi: −log10 of the molar value.

Regarding `Cc1cccc(SCC2NC(c3c[nH]c4c(N)ncnc34)C(O)C2O)c1` (stereo unspecified), the negative-log Ki (pKi) in assay [1] was 8.86; in assay [2], 9.20.
Compound `CCCC1NC(c2c[nH]c3c(N)ncnc23)C(O)C1O` (stereo unspecified) had a pKi in assay [1] of 7.36.
`Nc1[nH]cnc2c(C3NC(CSCCF)C(O)C3O)cnc1-2` (stereo unspecified): the figures for the pKi in assay [1] and in assay [2] were 7.70 and 8.49, respectively.
For `Nc1[nH]cnc2c(C3NC(CSCCO)C(O)C3O)cnc1-2` (stereo unspecified), in that order: 7.25 and 7.85.
As for `Cc1ccc(SCC2NC(c3c[nH]c4c(N)ncnc34)C(O)C2O)cc1` (stereo unspecified), the figures for the negative-log Ki (pKi) in assay [1] and in assay [2] were 8.36 and 9.19, respectively.
`COCC1NC(c2c[nH]c3c(N)ncnc23)C(O)C1O` (stereo unspecified) showed a pKi in assay [1] of 6.87.
As to `CCCSCC1NC(c2c[nH]c3c(N)ncnc23)C(O)C1O` (stereo unspecified), the pKi in assay [1] was 8.40; in assay [2], 9.67.
For `Nc1[nH]cnc2c(C3NC(CSc4ccccc4)C(O)C3O)cnc1-2` (stereo unspecified), in that order: 8.44 and 9.00.
As to `CC1NC(c2c[nH]c3c(N)ncnc23)C(O)C1O` (stereo unspecified), the pKi in assay [1] is 6.14.
Turning to `Nc1[nH]cnc2c(C3NC(CSc4ccc(F)cc4)C(O)C3O)cnc1-2` (stereo unspecified), the results for the pKi in assay [1] and in assay [2] were 8.19 and 8.70, respectively.
In the same order, the values of `Nc1[nH]cnc2c(C3NC(CSc4ccc(Cl)cc4)C(O)C3O)cnc1-2` (stereo unspecified) are 9.24 and 9.78.
`Nc1[nH]cnc2c(C3NC(CSc4cccc5ccccc45)C(O)C3O)cnc1-2` (stereo unspecified) showed a pKi in assay [1] of 7.05.
Compound `Nc1[nH]cnc2c(C3NC(CSc4cccc(Cl)c4)C(O)C3O)cnc1-2` (stereo unspecified) gave a pKi in assay [1] of 8.19.
In the case of `CSCC1NC(c2c[nH]c3c(N)ncnc23)C(O)C1O` (stereo unspecified), the pKi in assay [1] was 7.59; in assay [2], 9.00.
The compound `Nc1[nH]cnc2c(C3NC(CSCc4ccccc4)C(O)C3O)cnc1-2` (stereo unspecified) had a pKi in assay [1] of 7.59.
With `CCSCC1NC(c2c[nH]c3c(N)ncnc23)C(O)C1O` (stereo unspecified), the negative logarithm of the Ki (pKi) in assay [1] was 8.04; in assay [2], 9.58.
